The results in this text go back to patent US20210171554A1, “BENZOTHIOPHENE ESTROGEN RECEPTOR MODULATORS TO TREAT MEDICAL DISORDERS” (G1 Therapeutics, Inc., priority 2018, published 2021).

Usually IC50 stands for the midpoint of a concentration-inhibition curve.

The target of assay [1] is T1, human estrogen receptor (ERα) (Homo sapiens, UniProt P03372).
T1 construct: purchased Indigo Biosciences #1B00401
T1 sequence (P03372 1-595): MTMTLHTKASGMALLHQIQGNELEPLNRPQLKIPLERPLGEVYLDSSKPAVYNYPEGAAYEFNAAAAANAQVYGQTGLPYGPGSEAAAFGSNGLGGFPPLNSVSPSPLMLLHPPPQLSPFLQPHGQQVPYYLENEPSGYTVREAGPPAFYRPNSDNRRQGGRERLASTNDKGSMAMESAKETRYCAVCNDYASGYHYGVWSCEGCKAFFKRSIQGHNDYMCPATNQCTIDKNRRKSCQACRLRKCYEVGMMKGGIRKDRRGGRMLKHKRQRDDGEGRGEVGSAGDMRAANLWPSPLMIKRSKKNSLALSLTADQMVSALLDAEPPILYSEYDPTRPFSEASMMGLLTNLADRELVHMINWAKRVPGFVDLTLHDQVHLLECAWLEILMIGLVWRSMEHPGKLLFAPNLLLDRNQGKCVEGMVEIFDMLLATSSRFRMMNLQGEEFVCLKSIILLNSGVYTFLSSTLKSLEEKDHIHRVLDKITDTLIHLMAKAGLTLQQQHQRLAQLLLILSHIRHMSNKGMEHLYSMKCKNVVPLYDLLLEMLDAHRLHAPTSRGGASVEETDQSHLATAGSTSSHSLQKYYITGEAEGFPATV
As to the kind of experiment: Human ERα Reporter Assay (Indigo Biosciences, antagonist mode). The class given is cell-based. Conditions: antagonist activity, reporter cells with 17β-estradiol 8E-10 M, 24 hours. Here is the method:
All reagents used in this assay was supplied in the Human ERα Reporter Assay by Indigo Biosciences #1B00401. In an effort to screen selective estrogen receptor degraders (SERDs), the Human ERα Reporter Assay, supplied by Indigo Biosciences, was utilized to quantify antagonist functional activity against the human estrogen receptor. Reporter cells were thawed at 37° C. and added to pre-warmed to 37° C. cell recovery medium (CRM). Stock concentration of 17β-estradiol was serially diluted in CRM. Diluted 17β-estradiol was added to CRM containing reporter cells resulting in a working concentration of 1.6 nM (2×). Cells plus 17β-estradiol were dispensed in a kit-supplied white walled 96-well plate. Concentrated stocks of test compounds were diluted to 2× working concentrations in cell screening medium (CSM). 2× concentrated compounds were added to the plated cells in a dose-dependent manner resulting in a final concentration range of 1E-11 to 1E-5 M and a final […] concentration of 8E-10 M. Assay plates were incubated for 24 hours in a humidified 37° C. incubator. Culture medium was removed from the assay plates by inversion. Detection substrate and buffer was warmed to room temperature, mixed thoroughly, and immediately added to the assay plates. Assay plates were incubated for 15 minutes at room temperature protected from light. Luminescence was measured in a Synergy HTX luminescence plate reader. Data is processed utilizing GraphPad Prism 7 by graphing the relative light units measured at each compound concentration.
(§1) In the below table for the Estrogen Receptor Degradation Assay and the Human ERα Reporter Assay: […]
A general note: A reporter such as luciferase makes a cellular process visible.

In assay [2] the target is T2, estrogen receptor (Homo sapiens, UniProt P03372).
T2 construct: MCF7 cells, which are estrogen receptor positive; endogenous in cells; host or cells: MCF7
T2 sequence (P03372 1-595): T1 sequence (P03372 1-595)
Description: Estrogen Receptor (ER) Degradation Assay (In-Cell Western, MCF7 cells). Particulars: for DC50: 24 hours incubation, In-Cell Western, read-out: Estrogen Receptor Degradation Assay IC50; for % Estrogen Receptor Remaining: vehicle set to 100% ER. The class given is cell-based. Also on record: key to % Estrogen Receptor Remaining: **** denotes 0-0% Estrogen Receptor remaining; *** denotes 417% Estrogen Receptor remaining; ** denotes 719% Estrogen Receptor remaining; * denotes 9110% Estrogen Receptor remaining. How it is done:
A screening strategy was implemented utilizing an In-Cell Western assay to measure their ability to degrade the estrogen receptor in vitro. MCF7 cells, which are estrogen receptor positive, were plated at a cell density of […] into black walled clear bottom 96-well plates. Cells were incubated in phenol red free Dulbecco's Modified Eagle Media (DMEM) supplemented with 8% charcoal-stripped fetal bovine calf serum for 24 hours in a humidified 37° C. incubator. Concentrated stock compounds were diluted to 10× in complete media. Compounds were added to the plated cells in a dose-dependent manner ranging from 1E-12 to 1E-05 M and incubated for an additional 24 hours at 37° C. Culture medium was removed from the culture plates by gentle inversion. Cells were fixed in 4% paraformaldehyde in 1×phosphate buffered saline-calcium magnesium free (PBS-CMF) for 15 minutes at room temperature, washed 3 times for 5 minutes each in 1×PBS-CMF. Cells were permeabilized in immunofluorescence (IF) blocking buffer (Cell Signaling #12411) containing 0.3% Triton X100. Cells were washed 3 times for 5 minutes each in 1×PBS-CMF and incubated in estrogen receptor α (D6R2W) rabbit primary antibody (Cell Signaling #13258) diluted 1:300 in IF antibody dilution buffer (Cell Signaling #12378). Cells were washed 3 times for 5 minutes each in 1×PBS-CMF and stained with goat anti-rabbit (Biotium #CF770) secondary antibody diluted 1:2000 in IF antibody dilution buffer and normalizing stain CellTag 700 diluted 1:500 (Licor #926-41090). ER protein expression was assessed by the Licor Odyssey CLx imaging system using Image Studio v5.2. Data is processed utilizing GraphPad Prism 7 by subtracting background from the vehicle and setting the vehicle to 100% ER activity, followed by comparing treated samples to vehicle.
as §1

Turning to `Cc1cc(F)cc(C)c1C(=O)c1sc2c(F)c(O)ccc2c1Oc1ccc(OC2CCN(CCCF)C2)cc1` (stereo in doubt) [Compound 112, (R)-(4-fluoro-2,6-dimethylphenyl)(7-fluoro-3-(4-((1-(3-fluoropropyl)pyrrolidin-3-yl)oxy)phenoxy)-6-hydroxybenzo[b]thiophen-2-yl)methanone], the IC50 in assay [1] was less than 1000 nM. Further, in assay [2], the DC50 was less than 1000 nM and the “% Estrogen Receptor Remaining” value is given as “**** (**** denotes 0-0% Estrogen Receptor remaining)”.

`Cc1cc(F)cc(C)c1C(=O)c1sc2cc(O)c(F)cc2c1Oc1ccc(OC2CCN(CCCF)C2)cc1` (stereo in doubt) [Compound 113, (R)-(4-fluoro-2,6-dimethylphenyl)(5-fluoro-3-(4-((1-(3-fluoropropyl)pyrrolidin-3-yl)oxy)phenoxy)-6-hydroxybenzo[b]thiophen-2-yl)methanone]: in assay [1], the IC50 is less than 1000 nM. In assay [2], the DC50 is less than 1000 nM and the “% Estrogen Receptor Remaining” value is listed as “**** (**** denotes 0-0% Estrogen Receptor remaining)”.

For the compound `Cc1cc(F)cc(C)c1C(=O)c1sc2cc(O)ccc2c1Oc1ccc(O[C@H]2CCN(CCCF)C2)cc1` [Compound 100, (S)-(4-fluoro-2,6-dimethylphenyl)(3-(4-((1-(3-fluoropropyl)pyrrolidin-3-yl)oxy)phenoxy)-6-hydroxybenzo[b]thiophen-2-yl)methanone], the IC50 in assay [1] was less than 1000 nM. Besides, in assay [2], the DC50 was less than 1000 nM and the “% Estrogen Receptor Remaining” value is “**** (**** denotes 0-0% Estrogen Receptor remaining)”.

Regarding `Cc1cc(F)cc(C)c1C(=O)c1sc2cc(O)ccc2c1Oc1ccc(O[C@H]2CCNC2)cc1` [Compound 101, (S)-(4-fluoro-2,6-dimethylphenyl)(6-hydroxy-3-(4-(pyrrolidin-3-yloxy)phenoxy)benzo[b]thiophen-2-yl)methanone], the IC50 in assay [1] was less than 1000 nM. Besides, in assay [2], the DC50 was less than 1000 nM and the “% Estrogen Receptor Remaining” value is “***”.

`Cc1cc(F)cc(C)c1C(=O)c1sc2cc(O)ccc2c1Oc1ccc(O[C@@H]2CCN(CCCF)C2)cc1` [Compound 102, (R)-(4-fluoro-2,6-dimethylphenyl)(3-(4-((1-(3-fluoropropyl)pyrrolidin-3-yl)oxy)phenoxy)-6-hydroxybenzo[b]thiophen-2-yl)methanone]: the concentration for half-maximal inhibition (IC50) in assay [1] was less than 1000 nM. Also, in assay [2], the DC50 is less than 1000 nM and the “% Estrogen Receptor Remaining” value is reported as “**** (**** denotes 0-0% Estrogen Receptor remaining)”.

`CCNCCc1ccc(Oc2c(C(=O)c3c(C)cc(F)cc3C)sc3cc(C(=O)O)ccc23)cc1` [Compound 106, 3-(4-(2-(ethylamino)ethyl)phenoxy)-2-(4-fluoro-2,6-dimethylbenzoyl)benzo[b]thiophene-6-carboxylic acid]: in assay [1], the concentration for half-maximal inhibition (IC50) was less than 1000 nM. Besides, in assay [2], the DC50 is less than 1000 nM and the “% Estrogen Receptor Remaining” value is recorded as “***”.

Consider `Cc1cc(F)cc(C)c1C(=O)c1sc2cc(O)ccc2c1-c1ccc(O[C@H]2CCN(CCCF)C2)cc1` [Compound 108, (S)-(4-fluoro-2,6-dimethylphenyl)(3-(4-((1-(3-fluoropropyl)pyrrolidin-3-yl)oxy)phenyl)-6-hydroxybenzo[b]thiophen-2-yl)methanone], for which, in assay [1], the IC50 is less than 50000 nM. For the same compound, in assay [2], the DC50 was less than 1000 nM and the “% Estrogen Receptor Remaining” value was “**”.

For the compound `Cc1cc(F)cc(C)c1C(=O)c1sc2cc(O)ccc2c1-c1ccc(OCCN2CCCC2)cc1` [Compound 109, (4-fluoro-2,6-dimethylphenyl)(6-hydroxy-3-(4-(2-(pyrrolidin-1-yl)ethoxy)phenyl)benzo[b]thiophen-2-yl)methanone], the IC50 in assay [1] is less than 1000 nM. In assay [2], the DC50 was less than 1000 nM and the “% Estrogen Receptor Remaining” value is reported as “***”.

With `Cc1cc(F)cc(C)c1C(=O)c1sc2cc(O)ccc2c1-c1ccc(O[C@@H]2CCN(CCCF)C2)cc1` [Compound 110, (R)-(4-fluoro-2,6-dimethylphenyl)(3-(4-((1-(3-fluoropropyl)pyrrolidin-3-yl)oxy)phenyl)-6-hydroxybenzo[b]thiophen-2-yl)methanone], the IC50 in assay [1] was less than 1000 nM. In addition, in assay [2], the DC50 is less than 1000 nM and the “% Estrogen Receptor Remaining” value was “***”.

Take `Cc1cc(F)cc(C)c1C(=O)c1sc2cc(O)ccc2c1Oc1ccc(OCCN2CCC(CCCF)C2)cc1` (stereo not shown) [Compound 115, (4-fluoro-2,6-dimethylphenyl)(3-(4-(2-(3-(3-fluoropropyl)pyrrolidin-1-yl)ethoxy)phenoxy)-6-hydroxybenzo[b]thiophen-2-yl)methanone]: in assay [2], the DC50 is less than 1000 nM and the “% Estrogen Receptor Remaining” value is “**”.

In the case of `Cc1cc(F)cc(C)c1C(=O)c1sc2cc(S(N)(=O)=O)ccc2c1Oc1ccc(O[C@H]2CCN(CCCF)C2)cc1` [Compound 116, (S)-2-(4-fluoro-2,6-dimethylbenzoyl)-3-(4-((1-(3-fluoropropyl)pyrrolidin-3-yl)oxy)phenoxy)benzo[b]thiophene-6-sulfonamide], in assay [2], the DC50 was less than 1000 nM and the “% Estrogen Receptor Remaining” value is “**** (**** denotes 0-0% Estrogen Receptor remaining)”.
